Results on 19 molecules are retold here after patent publication US20100173968A1, “SUB-TYPE SELECTIVE AZABICYCLOALKANE DERIVATIVES” (TARGACEPT, INC., priority 2007, published 2010).

Chain of α7 nAChR Subtype (Q05941 23-502): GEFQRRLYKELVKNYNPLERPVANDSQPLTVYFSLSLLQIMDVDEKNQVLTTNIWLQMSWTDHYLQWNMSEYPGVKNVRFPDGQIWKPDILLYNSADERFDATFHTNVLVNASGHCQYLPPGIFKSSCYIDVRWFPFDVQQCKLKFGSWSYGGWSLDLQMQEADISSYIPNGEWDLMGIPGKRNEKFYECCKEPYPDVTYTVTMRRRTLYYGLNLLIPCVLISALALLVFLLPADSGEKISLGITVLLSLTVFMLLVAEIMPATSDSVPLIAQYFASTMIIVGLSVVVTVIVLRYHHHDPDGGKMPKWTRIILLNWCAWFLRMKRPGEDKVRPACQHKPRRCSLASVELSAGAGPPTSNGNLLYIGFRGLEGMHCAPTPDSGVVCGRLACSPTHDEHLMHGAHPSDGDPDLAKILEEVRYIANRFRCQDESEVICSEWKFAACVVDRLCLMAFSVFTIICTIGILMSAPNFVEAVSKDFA
Chain of Human α4β2 (P43681 29-627 limits assumed): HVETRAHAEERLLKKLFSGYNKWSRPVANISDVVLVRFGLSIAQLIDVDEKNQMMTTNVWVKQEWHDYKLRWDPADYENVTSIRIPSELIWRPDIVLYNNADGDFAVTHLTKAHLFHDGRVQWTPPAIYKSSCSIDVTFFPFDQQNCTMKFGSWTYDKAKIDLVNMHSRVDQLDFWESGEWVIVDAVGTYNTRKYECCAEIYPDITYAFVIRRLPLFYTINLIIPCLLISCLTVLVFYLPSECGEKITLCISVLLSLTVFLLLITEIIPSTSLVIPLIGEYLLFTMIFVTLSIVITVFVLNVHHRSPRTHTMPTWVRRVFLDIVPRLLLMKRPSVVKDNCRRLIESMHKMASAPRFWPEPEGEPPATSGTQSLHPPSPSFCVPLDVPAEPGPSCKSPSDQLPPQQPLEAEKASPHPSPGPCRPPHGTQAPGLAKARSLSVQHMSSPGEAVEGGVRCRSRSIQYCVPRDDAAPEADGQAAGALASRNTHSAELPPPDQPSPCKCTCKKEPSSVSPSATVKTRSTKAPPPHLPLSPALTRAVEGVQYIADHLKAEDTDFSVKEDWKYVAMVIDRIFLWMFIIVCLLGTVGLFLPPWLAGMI
Chain of Human α4β2 (P17787 26-502): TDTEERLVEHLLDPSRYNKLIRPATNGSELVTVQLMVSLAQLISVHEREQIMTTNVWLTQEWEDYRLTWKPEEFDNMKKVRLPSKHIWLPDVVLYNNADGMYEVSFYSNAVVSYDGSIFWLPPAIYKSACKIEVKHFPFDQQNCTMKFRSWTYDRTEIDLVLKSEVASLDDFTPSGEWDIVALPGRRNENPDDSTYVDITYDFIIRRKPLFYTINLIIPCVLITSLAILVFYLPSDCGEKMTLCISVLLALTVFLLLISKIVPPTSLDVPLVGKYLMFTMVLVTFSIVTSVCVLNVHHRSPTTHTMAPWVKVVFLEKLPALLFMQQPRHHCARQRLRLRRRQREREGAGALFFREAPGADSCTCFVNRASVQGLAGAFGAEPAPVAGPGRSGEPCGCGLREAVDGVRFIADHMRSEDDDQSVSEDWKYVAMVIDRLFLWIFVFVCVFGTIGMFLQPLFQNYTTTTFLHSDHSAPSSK

The first assay deals with α4β2 nAChR Subtype (Rattus norvegicus, UniProt P09483+P12390). As to the kind of experiment: Radioligand binding at α4β2 nAChR subtype, inhibition of [3H]nicotine binding, rat cerebral cortex membranes. The settings on record: [3H]nicotine 5 nM, read-out: Rat α4β2 Ki. As to the method: The [^3H]nicotine (Specific Activity=81.5 Ci/mmol) was obtained from NEN Research Products. The binding of [^3H]nicotine was measured using a 3 h incubation at 4° C. […] Each filter was washed with ice-cold buffer (3×1 mL).
Chain of α4β2 nAChR Subtype (P09483 31-630): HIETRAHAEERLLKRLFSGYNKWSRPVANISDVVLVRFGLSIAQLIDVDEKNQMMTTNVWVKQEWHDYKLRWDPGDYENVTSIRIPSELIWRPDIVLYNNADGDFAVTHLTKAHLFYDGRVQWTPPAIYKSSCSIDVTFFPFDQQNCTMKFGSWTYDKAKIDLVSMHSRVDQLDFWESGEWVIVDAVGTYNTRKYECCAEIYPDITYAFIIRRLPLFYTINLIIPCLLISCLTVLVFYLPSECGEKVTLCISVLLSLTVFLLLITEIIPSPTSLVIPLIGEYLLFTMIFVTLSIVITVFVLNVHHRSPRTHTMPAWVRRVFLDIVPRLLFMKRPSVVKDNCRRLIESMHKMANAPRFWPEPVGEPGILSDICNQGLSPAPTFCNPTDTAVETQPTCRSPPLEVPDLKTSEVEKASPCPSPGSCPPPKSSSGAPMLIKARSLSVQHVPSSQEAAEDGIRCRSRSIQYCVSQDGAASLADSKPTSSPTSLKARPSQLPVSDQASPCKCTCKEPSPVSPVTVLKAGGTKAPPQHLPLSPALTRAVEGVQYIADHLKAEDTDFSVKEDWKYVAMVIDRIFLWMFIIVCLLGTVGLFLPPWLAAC
Chain of α4β2 nAChR Subtype (P12390 25-500): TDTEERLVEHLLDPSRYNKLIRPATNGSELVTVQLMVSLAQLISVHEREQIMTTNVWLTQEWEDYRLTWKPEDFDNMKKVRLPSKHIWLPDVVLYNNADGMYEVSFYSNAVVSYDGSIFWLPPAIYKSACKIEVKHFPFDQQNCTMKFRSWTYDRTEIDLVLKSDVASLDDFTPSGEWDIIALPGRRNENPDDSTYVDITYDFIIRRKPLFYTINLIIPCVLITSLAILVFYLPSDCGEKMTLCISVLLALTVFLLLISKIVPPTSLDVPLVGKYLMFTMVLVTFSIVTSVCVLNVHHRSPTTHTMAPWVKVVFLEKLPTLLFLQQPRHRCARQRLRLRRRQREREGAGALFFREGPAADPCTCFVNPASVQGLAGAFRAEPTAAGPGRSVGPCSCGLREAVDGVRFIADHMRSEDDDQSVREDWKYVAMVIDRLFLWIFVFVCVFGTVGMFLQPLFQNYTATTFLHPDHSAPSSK
Each concentration was replicated in triplicate.
The term Ki denotes a dissociation constant, usually derived from enzyme kinetics or from competition with a known ligand. For `O=C(OC1CCOC1)C1C[C@H]2CNC[C@H]2C1` (stereo partly drawn) [tetrahydrofuran-3-yl 3-azabicyolo[3.3.0]octane-7-carboxylate], the Ki is 129 nM.
With `COCCNC(=O)C1CC2CNCC(C2)C1` (stereo not drawn) [N-(2-methoxyethyl)-3-azabicyclo[3.3.1]nonane-7-carboxamide], the Ki was 457 nM.
Still for that read-out and setting: in the case of `Cc1ccc(C(=O)C2C[C@H]3CNC[C@H]3C2)o1` (mixture of isomers) [5-methylfuran-2-yl(3-azabicyclo[3.3.0]oct-7-yl)methanone] it was 74.3 nM.
For the molecule `O=C(C1CCCC1)C1C[C@H]2CNC[C@H]2C1` (mixture of isomers) [cyclopentyl(3-azabicyclo[3.3.0]oct-7-yl)methanone], the Ki amounted to 15.9 nM.
On to `O=C(NC1CC=CC1)C1CC2CNCC(C2)C1` (stereo not drawn) [N-(3-cyclopentenyl)-3-azabicyclo[3.3.1]nonane-7-carboxamide], for which the Ki stood at 45.3 nM.
The same measure, in the same setting: in the case of `O=C(C1C[C@H]2CNC[C@H]2C1)N1CCC[C@H]1CO` (mixture of isomers) [(S)-(2-(hydroxymethyl)-1-pyrrolidinyl)(3-azabicyclo[3.3.0]oct-7-yl)methanone] it was 537 nM; in that of `CC(C)(C)NC(=O)C1CC2CNCC(C2)C1` (stereo not drawn) [N-tert-butyl-3-azabicyclo[3.3.1]nonane-7-carboxamide], 10.9 nM; in that of `CNC(=O)C1C[C@H]2CNC[C@H]2C1` (mixture of isomers) [N-methyl-3-azabicyclo[3.3.0]octane-7-carboxamide], 81.4 nM.
Still for that read-out and setting: in the case of `CC(=O)C1C[C@H]2CNC[C@H]2C1` (mixture of isomers) [1-(3-azabicyclo[3.3.0]oct-7-yl)-1-ethanone] it was 7.3 nM; in that of `O=C(C1C[C@H]2CNC[C@H]2C1)N1CCCCO1` (mixture of isomers) [(3-azabicyclo[3.3.0]oct-7-yl)(1-oxazinan-2-yl)methanone], 17.4 nM.
`O=C(NC1CCCC1)C1CC2CNCC(C2)C1` (stereo not drawn) [N-cyclopentyl-3-azabicyclo[3.3.1]nonane-7-carboxamide]: the Ki came out at 102 nM.
Turning to `CCC(C)NC(=O)C1CC2CNCC(C2)C1` (stereo not drawn) [N-sec-butyl-3-azabicyclo[3.3.1]nonane-7-carboxamide], the Ki stood at 272 nM.
Still for that read-out and setting: in the case of `NC(=O)C1C[C@H]2CNC[C@H]2C1` (mixture of isomers) [3-azabicyclo[3.3.0]octane-7-carboxamide] it was 394 nM; in that of `O=C(OC1CCCC1)C1C[C@H]2CNC[C@H]2C1` (mixture of isomers) [cyclopentyl 3-azabicyclo[3.3.0]octane-7-carboxylate], 26.6 nM.
The same measure, in the same setting: next, `O=C(C1CCCCC1)C1C[C@H]2CNC[C@H]2C1` (mixture of isomers) [cyclohexyl(3-azabicyclo[3.3.0]oct-7-yl)methanone]: 192 nM.
Still for that read-out and setting: next, `C#CCN(C)C(=O)C1C[C@H]2CNC[C@H]2C1` (stereo partly drawn) [N-methyl-N-prapargyl-3-azabicyclo[3.3.0]octane-7-carboxamide]: 139 nM.
As for `NC(=O)C1CC2CNCC(C2)C1` (stereo not drawn) [3-azabicyclo[3.3.1]nonane-7-carboxamide], the Ki worked out at 40.5 nM.
Same read-out and setting: next, `CC(C)NC(=O)C1CC2CNCC(C2)C1` (stereo not drawn) [N-isopropyl-3-azabicyclo[3.3.1]nonane-7-carboxamide]: 82 nM; `CCCCC(=O)[C@@H]1C[C@H]2CNC[C@H]2C1` [trans-1-(3-azabicyclo[3.3.0]oct-7-yl)-1-pentanone]: 108 nM.

The next assay addresses Human α4β2 (Homo sapiens, UniProt P17787+P43681). Description: Binding at human α4β2 (Ki); method not described.
Conditions: not given
With `O=C(OC1CCOC1)C1C[C@H]2CNC[C@H]2C1` (stereo partly drawn) [tetrahydrofuran-3-yl 3-azabicyolo[3.3.0]octane-7-carboxylate], the affinity corresponds to a Ki of 120 nM.
Same read-out and setting: in the case of `COCCNC(=O)C1CC2CNCC(C2)C1` (stereo not drawn) [N-(2-methoxyethyl)-3-azabicyclo[3.3.1]nonane-7-carboxamide] it was 774 nM; in that of `Cc1ccc(C(=O)C2C[C@H]3CNC[C@H]3C2)o1` (mixture of isomers) [5-methylfuran-2-yl(3-azabicyclo[3.3.0]oct-7-yl)methanone], 37 nM; in that of `O=C(C1CCCC1)C1C[C@H]2CNC[C@H]2C1` (mixture of isomers) [cyclopentyl(3-azabicyclo[3.3.0]oct-7-yl)methanone], 7.5 nM.
Still for that read-out and setting: in the case of `O=C(NC1CC=CC1)C1CC2CNCC(C2)C1` (stereo not drawn) [N-(3-cyclopentenyl)-3-azabicyclo[3.3.1]nonane-7-carboxamide] it was 24.3 nM; in that of `O=C(C1C[C@H]2CNC[C@H]2C1)N1CCC[C@H]1CO` (mixture of isomers) [(S)-(2-(hydroxymethyl)-1-pyrrolidinyl)(3-azabicyclo[3.3.0]oct-7-yl)methanone], 271 nM; in that of `CC(C)(C)NC(=O)C1CC2CNCC(C2)C1` (stereo not drawn) [N-tert-butyl-3-azabicyclo[3.3.1]nonane-7-carboxamide], 7.1 nM.
Same read-out and setting: next, `CNC(=O)C1C[C@H]2CNC[C@H]2C1` (mixture of isomers) [N-methyl-3-azabicyclo[3.3.0]octane-7-carboxamide]: 185 nM; `CC(=O)C1C[C@H]2CNC[C@H]2C1` (mixture of isomers) [1-(3-azabicyclo[3.3.0]oct-7-yl)-1-ethanone]: 10.7 nM.
For `O=C(C1C[C@H]2CNC[C@H]2C1)N1CCCCO1` (mixture of isomers) [(3-azabicyclo[3.3.0]oct-7-yl)(1-oxazinan-2-yl)methanone], affinity was put at a Ki of 5.5 nM.
Same read-out and setting: next, `O=C(NC1CCCC1)C1CC2CNCC(C2)C1` (stereo not drawn) [N-cyclopentyl-3-azabicyclo[3.3.1]nonane-7-carboxamide]: 26.8 nM.
On the same count and under the same terms, in the case of `CCC(C)NC(=O)C1CC2CNCC(C2)C1` (stereo not drawn) [N-sec-butyl-3-azabicyclo[3.3.1]nonane-7-carboxamide] it was 42.8 nM; in that of `NC(=O)C1C[C@H]2CNC[C@H]2C1` (mixture of isomers) [3-azabicyclo[3.3.0]octane-7-carboxamide], 320 nM; in that of `O=C(OC1CCCC1)C1C[C@H]2CNC[C@H]2C1` (mixture of isomers) [cyclopentyl 3-azabicyclo[3.3.0]octane-7-carboxylate], 13.9 nM.
Still for that read-out and setting: in the case of `O=C(C1CCCCC1)C1C[C@H]2CNC[C@H]2C1` (mixture of isomers) [cyclohexyl(3-azabicyclo[3.3.0]oct-7-yl)methanone] it was 44.2 nM; in that of `C#CCN(C)C(=O)C1C[C@H]2CNC[C@H]2C1` (stereo partly drawn) [N-methyl-N-prapargyl-3-azabicyclo[3.3.0]octane-7-carboxamide], 52.5 nM; in that of `NC(=O)C1CC2CNCC(C2)C1` (stereo not drawn) [3-azabicyclo[3.3.1]nonane-7-carboxamide], 76.9 nM.
Consider `CC(C)NC(=O)C1CC2CNCC(C2)C1` (stereo not drawn) [N-isopropyl-3-azabicyclo[3.3.1]nonane-7-carboxamide], for which the Ki was 31 nM.
Same read-out and setting: in the case of `CCCCC(=O)[C@@H]1C[C@H]2CNC[C@H]2C1` [trans-1-(3-azabicyclo[3.3.0]oct-7-yl)-1-pentanone] it was 186 nM.

Another assay has as its target α7 nAChR Subtype (Rattus norvegicus, UniProt Q05941). As to the kind of experiment: Radioligand binding at α7 nAChR subtype, inhibition of [3H]MLA binding, rat hippocampus membranes (HTS at 5 μM, then Ki).
Conditions: not given
The molecule `O=C(OC1CCOC1)C1C[C@H]2CNC[C@H]2C1` (stereo partly drawn) [tetrahydrofuran-3-yl 3-azabicyolo[3.3.0]octane-7-carboxylate] came in with a Ki of over 10000 nM.
Take `CNC(=O)C1C[C@H]2CNC[C@H]2C1` (mixture of isomers) [N-methyl-3-azabicyclo[3.3.0]octane-7-carboxamide]: the Ki worked out at 27300 nM.
With `NC(=O)C1C[C@H]2CNC[C@H]2C1` (mixture of isomers) [3-azabicyclo[3.3.0]octane-7-carboxamide], the affinity corresponds to a Ki of 8280 nM.
On the same count and under the same terms, next, `C#CCN(C)C(=O)C1C[C@H]2CNC[C@H]2C1` (stereo partly drawn) [N-methyl-N-prapargyl-3-azabicyclo[3.3.0]octane-7-carboxamide]: at least 10000 nM; `NC(=O)C1CC2CNCC(C2)C1` (stereo not drawn) [3-azabicyclo[3.3.1]nonane-7-carboxamide]: over 10000 nM.

The assay is the same for the next values; noted with them: read-out: α7 HTS outcome (α7 Ki).
On to `COCCNC(=O)C1CC2CNCC(C2)C1` (stereo not drawn) [N-(2-methoxyethyl)-3-azabicyclo[3.3.1]nonane-7-carboxamide], for which the inhibition at 5 µM is under 50%.
The same measure, in the same setting: in the case of `Cc1ccc(C(=O)C2C[C@H]3CNC[C@H]3C2)o1` (mixture of isomers) [5-methylfuran-2-yl(3-azabicyclo[3.3.0]oct-7-yl)methanone] it was under 50%; in that of `O=C(C1CCCC1)C1C[C@H]2CNC[C@H]2C1` (mixture of isomers) [cyclopentyl(3-azabicyclo[3.3.0]oct-7-yl)methanone], under 50%.
On the same count and under the same terms, in the case of `O=C(NC1CC=CC1)C1CC2CNCC(C2)C1` (stereo not drawn) [N-(3-cyclopentenyl)-3-azabicyclo[3.3.1]nonane-7-carboxamide] it was under 50%; in that of `O=C(C1C[C@H]2CNC[C@H]2C1)N1CCC[C@H]1CO` (mixture of isomers) [(S)-(2-(hydroxymethyl)-1-pyrrolidinyl)(3-azabicyclo[3.3.0]oct-7-yl)methanone], under 50%.
Still for that read-out and setting: in the case of `CC(C)(C)NC(=O)C1CC2CNCC(C2)C1` (stereo not drawn) [N-tert-butyl-3-azabicyclo[3.3.1]nonane-7-carboxamide] it was under 50%; in that of `O=C(NC1CCCC1)C1CC2CNCC(C2)C1` (stereo not drawn) [N-cyclopentyl-3-azabicyclo[3.3.1]nonane-7-carboxamide], under 50%.
Turning to `O=C(OC1CCCC1)C1C[C@H]2CNC[C@H]2C1` (mixture of isomers) [cyclopentyl 3-azabicyclo[3.3.0]octane-7-carboxylate], the inhibition at 5 µM is under 50%.
On the same count and under the same terms, in the case of `O=C(C1CCCCC1)C1C[C@H]2CNC[C@H]2C1` (mixture of isomers) [cyclohexyl(3-azabicyclo[3.3.0]oct-7-yl)methanone] it was under 50%; in that of `CC(C)NC(=O)C1CC2CNCC(C2)C1` (stereo not drawn) [N-isopropyl-3-azabicyclo[3.3.1]nonane-7-carboxamide], under 50%.
With `CCCCC(=O)[C@@H]1C[C@H]2CNC[C@H]2C1` [trans-1-(3-azabicyclo[3.3.0]oct-7-yl)-1-pentanone], the inhibition at 5 µM is under 50%.

Staying with this assay, now noted: read-out: α7 Ki; [3H]MLA 5 nM, rat hippocampus.
Regarding `CC(=O)C1C[C@H]2CNC[C@H]2C1` (mixture of isomers) [1-(3-azabicyclo[3.3.0]oct-7-yl)-1-ethanone], the Ki is over 10000 nM.
Take `O=C(C1C[C@H]2CNC[C@H]2C1)N1CCCCO1` (mixture of isomers) [(3-azabicyclo[3.3.0]oct-7-yl)(1-oxazinan-2-yl)methanone]: the Ki is at least 10000 nM.
The same measure, in the same setting: next, `CCC(C)NC(=O)C1CC2CNCC(C2)C1` (stereo not drawn) [N-sec-butyl-3-azabicyclo[3.3.1]nonane-7-carboxamide]: over 10000 nM.
